According to US20230278972A1, “SUBSTITUTED HALOALKYL SULFONANILIDE HERBICIDES” (FMC Corporation, priority 2020, published 2023):

Tests used:
Assay type in all cases: in vivo
[1] = system: barnyardgrass (Echinochloa crus-galli); experiment: Test A preemergence, barnyardgrass; details: Preemergence; for Barnyardgrass plant response rating: 125 g ai/ha, visual injury on 0 to 100 scale (0 no effect, 100 complete control), approximately 10 days; for Plant response rating, Barnyardgrass: 500 g ai/ha, 0 to 100 scale (0 no effect, 100 complete control)
Method in brief: (§1)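 After sowing into a sand-amended loam, pots for the preemergence test were treated by spraying directly onto soil. In parallel, seedlings at the one- to two-leaf stage and 2 to 10 cm tall were treated postemergence with the identical surfactant-containing formulation.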

kochia (Bassia scoparia) [2] = experiment: Test A preemergence, kochia; details: Preemergence; for Kochia plant response rating: 125 g ai/ha, visual injury on 0 to 100 scale (0 no effect, 100 complete control), approximately 10 days; for Plant response rating, Kochia: 500 g ai/ha, 0 to 100 scale (0 no effect, 100 complete control)
Method in brief: as §1

[3] = system: ragweed (common ragweed, Ambrosia artemisiifolia); experiment: Test A preemergence, ragweed; details: Preemergence; for Ragweed plant response rating: 125 g ai/ha, visual injury on 0 to 100 scale (0 no effect, 100 complete control), approximately 10 days; for Plant response rating, Ragweed: 500 g ai/ha, 0 to 100 scale (0 no effect, 100 complete control)
Method in brief: as §1

[4] = system: Ryegrass, Italian (Italian ryegrass, Lolium multiflorum); experiment: Test A preemergence, Ryegrass, Italian; details: Preemergence; for Ryegrass, Italian plant response rating: 125 g ai/ha, visual injury on 0 to 100 scale (0 no effect, 100 complete control), approximately 10 days; for Plant response rating, Ryegrass, Italian: 500 g ai/ha, 0 to 100 scale (0 no effect, 100 complete control)
Method in brief: as §1

[5] = system: Foxtail, Giant (giant foxtail, Setaria faberi); experiment: Test A preemergence, Foxtail, Giant; details: Preemergence; for Foxtail, Giant plant response rating: 125 g ai/ha, visual injury on 0 to 100 scale (0 no effect, 100 complete control), approximately 10 days; for Plant response rating, Foxtail, Giant: 500 g ai/ha, 0 to 100 scale (0 no effect, 100 complete control)
Method in brief: as §1

[6] = system: pigweed (Amaranthus retroflexus); experiment: Test A preemergence, pigweed; details: for Pigweed plant response rating: 125 g ai/ha, visual injury on 0 to 100 scale (0 no effect, 100 complete control), approximately 10 days; for Plant response rating, Pigweed: 500 g ai/ha, 0 to 100 scale (0 no effect, 100 complete control)
Method in brief: (§2)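 Greenhouse pot test in a loam–sand blend; compounds delivered in a non-phytotoxic solvent carrying a surfactant, applied either as a directed spray to soil at seeding or over seedlings 2 to 10 cm high with one to two leaves.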

[7] = system: barnyardgrass (Echinochloa crus-galli); experiment: Test A postemergence, barnyardgrass; details: Postemergence, 0 to 100 scale (0 no effect, 100 complete control); for Plant response rating, Barnyardgrass: 125 g ai/ha; for Barnyardgrass plant response rating: 500 g ai/ha, visual injury vs untreated controls after approx. 10 days
Method in brief: as §2

kochia (Bassia scoparia) [8] = experiment: Test A postemergence, kochia; details: Postemergence, 0 to 100 scale (0 no effect, 100 complete control); for Plant response rating, Kochia: 125 g ai/ha; for Kochia plant response rating: 500 g ai/ha, visual injury vs untreated controls after approx. 10 days
Method in brief: as §1

[9] = system: ragweed (common ragweed, Ambrosia artemisiifolia); experiment: Test A postemergence, ragweed; details: Postemergence, 0 to 100 scale (0 no effect, 100 complete control); for Plant response rating, Ragweed: 125 g ai/ha; for Ragweed plant response rating: 500 g ai/ha, visual injury vs untreated controls after approx. 10 days
Method in brief: as §1

[10] = system: Ryegrass, Italian (Italian ryegrass, Lolium multiflorum); experiment: Test A postemergence, Ryegrass, Italian; details: Postemergence, 0 to 100 scale (0 no effect, 100 complete control); for Plant response rating, Ryegrass, Italian: 125 g ai/ha; for Ryegrass, Italian plant response rating: 500 g ai/ha, visual injury vs untreated controls after approx. 10 days
Method in brief: as §1

[11] = system: Foxtail, Giant (giant foxtail, Setaria faberi); experiment: Test A postemergence, Foxtail, Giant; details: Postemergence, 0 to 100 scale (0 no effect, 100 complete control); for Plant response rating, Foxtail, Giant: 125 g ai/ha; for Foxtail, Giant plant response rating: 500 g ai/ha, visual injury vs untreated controls after approx. 10 days
Method in brief: as §1

[12] = system: pigweed (Amaranthus retroflexus); experiment: Test A postemergence, pigweed; details: Postemergence, 0 to 100 scale (0 no effect, 100 complete control); for Plant response rating, Pigweed: 125 g ai/ha; for Pigweed plant response rating: 500 g ai/ha, visual injury vs untreated controls after approx. 10 days
Method in brief: as §1

[13] = system: wheat (Triticum aestivum); experiment: Test A postemergence, wheat; details: Postemergence, 0 to 100 scale (0 no effect, 100 complete control); for Plant response rating, Wheat: 125 g ai/ha; for Wheat plant response rating: 500 g ai/ha, visual injury vs untreated controls after approx. 10 days
Method in brief: as §2

corn (Zea mays) = experiment: Test A postemergence, corn; details: Postemergence, 0 to 100 scale (0 no effect, 100 complete control); for Plant response rating, Corn: 125 g ai/ha; for Corn plant response rating: 500 g ai/ha, visual injury vs untreated controls after approx. 10 days
Method in brief: as §1

[14] = system: blackgrass (Alopecurus myosuroides); experiment: Test A postemergence, blackgrass; details: Postemergence, 0 to 100 scale (0 no effect, 100 complete control); for Plant response rating, Blackgrass: 125 g ai/ha; for Blackgrass plant response rating: 500 g ai/ha, visual injury vs untreated controls after approx. 10 days
Method in brief: as §1

[15] = system: galium (catchweed bedstraw, Galium aparine); experiment: Test A postemergence, galium; details: Postemergence, 0 to 100 scale (0 no effect, 100 complete control); for Plant response rating, Galium: 125 g ai/ha; for Galium plant response rating: 500 g ai/ha, visual injury vs untreated controls after approx. 10 days
Method in brief: as §2

SMILES	Barnyardgrass plant response rating [1]	Plant response rating, Barnyardgrass [1]	Kochia plant response rating (kochia (Bassia scoparia) [2])	Plant response rating, Kochia (kochia (Bassia scoparia) [2])	Ragweed plant response rating [3]	Plant response rating, Ragweed [3]	Ryegrass, Italian plant response rating [4]	Plant response rating, Ryegrass, Italian [4]	Foxtail, Giant plant response rating [5]	Plant response rating, Foxtail, Giant [5]	Pigweed plant response rating [6]	Plant response rating, Pigweed [6]	Plant response rating, Barnyardgrass [7]	Barnyardgrass plant response rating [7]	Plant response rating, Kochia (kochia (Bassia scoparia) [8])	Kochia plant response rating (kochia (Bassia scoparia) [8])	Plant response rating, Ragweed [9]	Ragweed plant response rating [9]	Plant response rating, Ryegrass, Italian [10]	Ryegrass, Italian plant response rating [10]	other results
Cc1cc(Cl)c(C2=NOC(C)(C)C2)cc1NS(=O)(=O)C(F)(F)F [Compound 183]	90	100	20	60	20	90	70	100	50	70	70	80	20	70	10	50	60	80	0	0	Plant response rating, Foxtail, Giant [11]: 0; Foxtail, Giant plant response rating [11]: 10; Plant response rating, Pigweed [12]: 30; Pigweed plant response rating [12]: 30; Plant response rating, Wheat [13]: 0; Wheat plant response rating [13]: 0; Plant response rating, Corn (corn (Zea mays)): 0; Corn plant response rating (corn (Zea mays)): 30; Plant response rating, Blackgrass [14]: 10; Blackgrass plant response rating [14]: 10; Plant response rating, Galium [15]: 70; Galium plant response rating [15]: 90
Cc1cc(Cl)c(C2=NOC(C)(C)C2)cc1N(S(=O)(=O)C(F)(F)F)S(=O)(=O)C(F)(F)F [Compound 184]	70	100	0	0	80	90	30	50	30	90	70	100	20	50	0	30	40	70	0	0	Plant response rating, Foxtail, Giant [11]: 0; Foxtail, Giant plant response rating [11]: 0; Plant response rating, Pigweed [12]: 20; Pigweed plant response rating [12]: 40; Plant response rating, Wheat [13]: 0; Wheat plant response rating [13]: 0; Plant response rating, Corn (corn (Zea mays)): 0; Corn plant response rating (corn (Zea mays)): 0; Plant response rating, Blackgrass [14]: 0; Blackgrass plant response rating [14]: 20; Plant response rating, Galium [15]: 80; Galium plant response rating [15]: 90
